The values below come from patent US7179808B2 (Janssen Pharmaceutica N.V., priority 2002, dated 2007).

Counter-ions that a name gives are not always drawn.

One data set has as its target T1, NADPH-oxidase (Homo sapiens, UniProt P04839).
T1 construct: endogenous in cells; host or cells: human neutrophils isolated from the buffy coat of one unit of blood
T1 sequence (P04839 1-570): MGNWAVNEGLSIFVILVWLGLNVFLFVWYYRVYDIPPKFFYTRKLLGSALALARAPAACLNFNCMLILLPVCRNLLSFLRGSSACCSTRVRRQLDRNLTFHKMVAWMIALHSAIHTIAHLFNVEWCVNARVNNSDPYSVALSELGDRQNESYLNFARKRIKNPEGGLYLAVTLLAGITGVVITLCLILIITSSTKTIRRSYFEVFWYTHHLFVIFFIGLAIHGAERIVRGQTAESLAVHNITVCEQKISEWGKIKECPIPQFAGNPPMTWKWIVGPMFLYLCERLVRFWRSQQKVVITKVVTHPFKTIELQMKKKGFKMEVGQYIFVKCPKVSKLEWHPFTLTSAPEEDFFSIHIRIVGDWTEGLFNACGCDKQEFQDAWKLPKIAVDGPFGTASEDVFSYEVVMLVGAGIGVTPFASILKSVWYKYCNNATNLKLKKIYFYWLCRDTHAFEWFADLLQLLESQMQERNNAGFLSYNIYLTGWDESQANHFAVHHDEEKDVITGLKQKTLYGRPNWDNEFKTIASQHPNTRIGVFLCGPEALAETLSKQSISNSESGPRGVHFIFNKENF
T1 sequence (P13498 1-195 partner): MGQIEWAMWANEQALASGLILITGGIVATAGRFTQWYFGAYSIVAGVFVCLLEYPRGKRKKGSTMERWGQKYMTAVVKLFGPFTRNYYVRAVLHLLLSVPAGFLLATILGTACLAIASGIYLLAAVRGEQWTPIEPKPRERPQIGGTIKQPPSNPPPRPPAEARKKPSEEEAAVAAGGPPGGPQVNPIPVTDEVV
The data set is described as follows: Oxidase Inhibition Assay (PMA-stimulated superoxide-mediated reduction of Cytochrome c, absorbance at 550 nm). The format is cell-based. Conditions: for IC50: human neutrophils, 0.5 μM PMA, Cytochrome c reduction at 550 nm. As for the experimental part: Whole cells (human neutrophils) are incubated with a pro-inflammatory agonist phorbol myristate acetate (PMA) in the presence or absence of test compound to measure the superoxide-mediated reduction of Cytochrome c at 550 nm. Inhibition of the oxidase is determined by a decreased absorbance at 550 nm, in response to test compound, relative to the absorbance seen with a vehicle control.
The buffy coat from one unit of blood is split evenly into four 50 mL tubes. To each tube 30 mL 3% Dextran (in 0.9% NaCl) is added and the tubes are inverted to mix. Tubes are allowed to sit undisturbed for 25 minutes. The resulting supernatant is recovered into four fresh tubes and centrifuged for 10 minutes at 600×g, 4° C. The supernatant is discarded and pellets are resuspended in 35 mL 0.9% saline. 10 mL Ficoll-Paque PLUS (Pharmacia Biotech AB) is layered beneath the cell suspension and centrifuged at 600×g for 40 minutes at room temperature. The supernatant is again discarded and tubes are tapped to loosen the resulting pellets. 20 mL 0.2% ice cold saline is added for 30 seconds followed by 20 mL 1.6% ice cold saline to lyse the remaining erythrocytes in the pellets. The pellets are centrifuged for 10 minutes at 600×g, 4° C., and the supernatant is discarded. The neutrophil pellets are resuspended in HBSS-glucose buffer (1 mg/mL), adding 2.5 mL to each tube for a total volume of 10 mL. The cell suspension is then counted on a hemocytometer.
The cell suspension is diluted to a concentration of 5×10^6/mL in HBSS-glucose and treated with 1 μg/mL Cytochalasin B (5 mg/mL DMSO) for 10 minutes at 37° C. in a shaking water bath. Cells are diluted to 6×10^5 cells/mL in 92 μM Cytochrome c for a final concentration of 5×10^4 cells/well.
The NADPH-oxidase assay is run on a Biomek 2000 workstation. The workstation adds 2.5 μl compound per well from source plates plus 12.5 μL per well 4 μM PMA (agonist). This volume is brought up to 100 μL total per well in the assay plates upon the addition of the prepared cells (85 μL). The final concentration of drug is 25 μM and PMA is 0.5 μM under these conditions.
The QC curve is a dose-responsive curve (from about 31.25 nM to about 4000 nM) for competitive binding against a known oxidase inhibitor such as DPI (diphenylene iodonium chloride). The following format was used for each compound tested:
The plates are incubated for 1 hour at 37° C. without CO2. The plates are then incubated at room temperature for 30 minutes and the absorbance is read at 550 nm.

The test system of data set [1] is mice with potassium peroxochromate arthritis. Conditions: cited from earlier work.
For the next data set, the system named is ROS. The conditions noted are these: human patients with rheumatoid arthritis and osteoarthritis, pharmacological doses; cited from earlier work.

One may read the IC50 as the point on the concentration scale where inhibition reaches its midpoint. A high value points to lower potency. On NADPH-oxidase, `CC(C)CNCc1cccc(OCc2nc(-c3ccc(Cl)cc3)cs2)c1` came in with an IC50 of 2.5 µM.
The same measure, in the same setting: the same measure for “4-(4-chlorophenyl)-2-[[3-[(5-methyl-2-furanyl)methyl]phenoxy]methyl]-thiazole [Cpd 8]”: 0.7 µM.
As a reminder, the melting point is the temperature, or range, at which the solid turns liquid. The compound `CCCNCc1cccc(OCc2nc(-c3ccc(Cl)cc3)cs2)c1` [Cpd 1, 3-[[4-(4-chlorophenyl)-2-thiazolyl]methoxy]-N-propyl-benzenemethanamine] registered a melting point of 63.5 to 64.5 °C. The concentration for half-maximal inhibition (IC50) at NADPH-oxidase turned out to be 1.65 µM.
With `CCCNCc1ccc(OCc2nc(-c3ccc(Cl)cc3)cs2)cc1` [Cpd 1a, 4-[[4-(4-chlorophenyl)-2-thiazolyl]methoxy]-N-propyl-benzenemethanamine], the melting point lay within 63.5 to 64.5 °C.
Still for that read-out and setting: as for `CCCCNCc1cccc(OCc2nc(-c3ccc(Cl)cc3)cs2)c1` [Cpd 2, 3-[[4-(4-chlorophenyl)-2-thiazolyl]methoxy]-N-(3-methylpropyl)-benzenemethanamine], the figure is 86 to 88 °C.
The compound `Clc1ccc(-c2csc(COc3cccc(CNC4CCCC4)c3)n2)cc1` [Cpd 3, 3-[[4-(4-chlorophenyl)-2-thiazolyl]methoxy]-N-cyclopentyl-benzenemethanamine] came in with a melting point of 94 to 94.5 °C. At NADPH-oxidase, this compound returned an IC50 of 0.04 µM.
In the same order, the values of `Clc1ccc(-c2csc(COc3cccc(CNC4CCCCC4)c3)n2)cc1` [Cpd 4, 3-[[4-(4-chlorophenyl)-2-thiazolyl]methoxy]-N-cyclohexyl-benzenemethanamine] are 85 to 86 °C and 0.13 µM.
In the same order, the values of `Clc1ccc(-c2csc(COc3cccc(CNC4CC4)c3)n2)cc1` [Cpd 5, 3-[[4-(4-chlorophenyl)-2-thiazolyl]methoxy]-N-cyclopropyl-benzenemethanamine] are 80.5 to 81.5 °C and 3.45 µM.
Regarding `CN1CCCC1CNCc1cccc(OCc2nc(-c3ccc(Cl)cc3)cs2)c1` (centres unmarked) [Cpd 6, N-[[3-[[4-(4-chlorophenyl)-2-thiazolyl]methoxy]phenyl]methyl]-1-methyl-2-pyrrolidinemethanamine.(HCl)2], the IC50 against NADPH-oxidase was determined as 10 µM.
Still for that read-out and setting: the same measure for `Clc1ccc(-c2csc(COc3cccc(CNCCN4CCOCC4)c3)n2)cc1` [Cpd 7]: 1.47 µM; for `COc1ccc2[nH]cc(CCNCc3cccc(OCc4nc(-c5ccc(Cl)cc5)cs4)c3)c2c1` [Cpd 9, N-[[3-[[4-(4-chlorophenyl)-2-thiazolyl]methoxy]phenyl]methyl]-5-methoxy-1H-indole-3-ethanamine.HCl]: 0.3 µM.
Regarding `Clc1ccc(-c2csc(COc3ccc(CNC4CCCC4)cc3)n2)cc1` [Cpd 10, 4-[[4-(4-chlorophenyl)-2-thiazolyl]methoxy]-N-cyclopentyl-benzenemethanamine], the melting point was 125.5 to 126.5 °C. Also, at NADPH-oxidase, inhibition was half-maximal at 0.7 µM (IC50).
In the same order, the values of `NCc1cccc(OCc2nc(-c3ccc(Cl)cc3)cs2)c1` [Cpd 11, 3-[[4-(4-chlorophenyl)-2-thiazolyl]methoxy]-benzenemethanamine] are 117 to 118.5 °C and 1.9 µM.
By inhibition is commonly meant the change of the read-out against control, counted positive when it falls. Turning to `c1ccc2c(c1)[I+]c1ccccc1-2` [DPI, diphenylene iodoniumchloride], the “inhibition of the arthritis” value in data set [1] (10 mmol/kg) is reported as “Complete inhibition”. Besides, the inhibited the arthritis in data set [1] (daily doses of 2.8 μmol/kg) is 50%. The inhibition at 10 µM on NADPH-oxidase (QC wells G–H, 2.5 μL of 10 μM DPI, at 250 nm (so in the source), agonist added) is about 70%.
Regarding `CN1C(C(=O)Nc2ccccn2)=C(O)c2ccccc2S1(=O)=O` [Piroxicam], in the data set with ROS, the “reduce levels of ROS” value is recorded as 25%.
